# Results published in ChEMBL document CHEMBL3885881, “DrugMatrix”.
# Species: Rattus norvegicus
# Assay: DrugMatrix - Regimen: Daily Repeat
# Type: toxicity, organism-based, Sprague-Dawley
# Design: regimen Daily Repeat, gender Male, age 6-8 weeks
# Conditions: in vivo, po, route oral GAVAGE, vehicle .5 % CMC; for BASOPHIL / EOSINOPHIL / ERYTHROCYTE COUNT / HEMATOCRIT / HEMOGLOBIN / LEUKOCYTE COUNT / LYMPHOCYTE / MEAN CORPUSCULAR HEMOGLOBIN / MEAN CORPUSCULAR HEMOGLOBIN CONCENTRATION / MEAN CORPUSCULAR VOLUME / MONOCYTE / NEUTROPHIL / PLATELET COUNT: tissue Blood; for ALANINE AMINOTRANSFERASE / ALBUMIN / ALKALINE PHOSPHATASE / ASPARTATE AMINOTRANSFERASE / BLOOD UREA NITROGEN / CHLORIDE / CHOLESTEROL / CREATINE PHOSPHOKINASE / CREATININE / GLUCOSE / PHOSPHORUS / POTASSIUM / SODIUM / TOTAL BILIRUBIN / TOTAL PROTEIN: tissue Plasma
# [1] = 0 mg/kg, 72 h, dose level Control, time 3 day
# [2] = 0 mg/kg, 120 h, dose level Control, time 5 day
# [3] = 8 mg/kg, 72 h, dose level Low, time 3 day
# [4] = 8 mg/kg, 120 h, dose level Low, time 5 day
# [5] = 24 mg/kg, 72 h, dose level High, time 3 day
# [6] = 24 mg/kg, 120 h, dose level High, time 5 day
smiles,measurement,setting,value
CCc1cccc2c3c([nH]c12)C(CC)(CC(=O)O)OCC3 (stereo not drawn) [ETODOLAC],BASOPHIL,[1],1.52%
same,EOSINOPHIL,[1],0.98%
same,ERYTHROCYTE COUNT,[1],6.96 x10E6/uL
same,HEMATOCRIT,[1],44.65%
same,HEMOGLOBIN,[1],13.62 G/DL
same,LEUKOCYTE COUNT,[1],9.83 x10E3/uL
same,LYMPHOCYTE,[1],76.48%
same,MEAN CORPUSCULAR HEMOGLOBIN,[1],19.57 pg
same,MEAN CORPUSCULAR HEMOGLOBIN CONCENTRATION,[1],30.47 G/DL
same,MEAN CORPUSCULAR VOLUME,[1],64.22 fL
same,MONOCYTE,[1],2.13%
same,NEUTROPHIL,[1],18.6%
same,PLATELET COUNT,[1],1217.17 x10E3/uL
same,ALANINE AMINOTRANSFERASE,[1],41 u/L
same,ALBUMIN,[1],3.77 G/DL
same,ALKALINE PHOSPHATASE,[1],411.83 u/L
same,ASPARTATE AMINOTRANSFERASE,[1],62.83 u/L
same,BLOOD UREA NITROGEN,[1],15.17 mg/dL
same,CHLORIDE,[1],104.33 MEQ/L
same,CHOLESTEROL,[1],71.17 mg/dL
same,CREATINE PHOSPHOKINASE,[1],123.5 u/L
same,CREATININE,[1],0.55 mg/dL
same,GLUCOSE,[1],182.67 mg/dL
same,PHOSPHORUS,[1],11.23 mg/dL
same,POTASSIUM,[1],7.03 MEQ/L
same,SODIUM,[1],148 MEQ/L
same,TOTAL BILIRUBIN,[1],0.57 mg/dL
same,TOTAL PROTEIN,[1],6.85 G/DL
same,BASOPHIL,[2],1.35%
same,EOSINOPHIL,[2],0.43%
same,ERYTHROCYTE COUNT,[2],6.96 x10E6/uL
same,HEMATOCRIT,[2],44.35%
same,HEMOGLOBIN,[2],13.98 G/DL
same,LEUKOCYTE COUNT,[2],9.45 x10E3/uL
same,LYMPHOCYTE,[2],80.83%
same,MEAN CORPUSCULAR HEMOGLOBIN,[2],20.1 pg
same,MEAN CORPUSCULAR HEMOGLOBIN CONCENTRATION,[2],31.52 G/DL
same,MEAN CORPUSCULAR VOLUME,[2],63.72 fL
same,MONOCYTE,[2],2.37%
same,NEUTROPHIL,[2],14.05%
same,PLATELET COUNT,[2],1298 x10E3/uL
same,ALANINE AMINOTRANSFERASE,[2],42.17 u/L
same,ALBUMIN,[2],3.77 G/DL
same,ALKALINE PHOSPHATASE,[2],419 u/L
same,ASPARTATE AMINOTRANSFERASE,[2],66.67 u/L
same,BLOOD UREA NITROGEN,[2],16.67 mg/dL
same,CHLORIDE,[2],103.17 MEQ/L
same,CHOLESTEROL,[2],66.33 mg/dL
same,CREATINE PHOSPHOKINASE,[2],148.33 u/L
same,CREATININE,[2],0.58 mg/dL
same,GLUCOSE,[2],196.83 mg/dL
same,PHOSPHORUS,[2],11.8 mg/dL
same,POTASSIUM,[2],6.47 MEQ/L
same,SODIUM,[2],148.33 MEQ/L
same,TOTAL BILIRUBIN,[2],0.53 mg/dL
same,TOTAL PROTEIN,[2],6.77 G/DL
same,BASOPHIL,[3],2.87%
same,EOSINOPHIL,[3],0.5%
same,ERYTHROCYTE COUNT,[3],7.29 x10E6/uL
same,HEMATOCRIT,[3],46.3%
same,HEMOGLOBIN,[3],14.43 G/DL
same,LEUKOCYTE COUNT,[3],10.83 x10E3/uL
same,LYMPHOCYTE,[3],74.43%
same,MEAN CORPUSCULAR HEMOGLOBIN,[3],19.83 pg
same,MEAN CORPUSCULAR HEMOGLOBIN CONCENTRATION,[3],31.17 G/DL
same,MEAN CORPUSCULAR VOLUME,[3],63.57 fL
same,MONOCYTE,[3],2.53%
same,NEUTROPHIL,[3],19.13%
same,PLATELET COUNT,[3],1601 x10E3/uL
same,ALANINE AMINOTRANSFERASE,[3],44.33 u/L
same,ALBUMIN,[3],3.8 G/DL
same,ALKALINE PHOSPHATASE,[3],358.67 u/L
same,ASPARTATE AMINOTRANSFERASE,[3],64 u/L
same,BLOOD UREA NITROGEN,[3],12.33 mg/dL
same,CHLORIDE,[3],102.67 MEQ/L
same,CHOLESTEROL,[3],62 mg/dL
same,CREATINE PHOSPHOKINASE,[3],129.67 u/L
same,CREATININE,[3],0.57 mg/dL
same,GLUCOSE,[3],182.33 mg/dL
same,PHOSPHORUS,[3],13.07 mg/dL
same,POTASSIUM,[3],7.23 MEQ/L
same,SODIUM,[3],148.67 MEQ/L
same,TOTAL BILIRUBIN,[3],0.37 mg/dL
same,TOTAL PROTEIN,[3],6.7 G/DL
same,BASOPHIL,[4],2.2%
same,EOSINOPHIL,[4],0.17%
same,ERYTHROCYTE COUNT,[4],7.21 x10E6/uL
same,HEMATOCRIT,[4],45.2%
same,HEMOGLOBIN,[4],14.13 G/DL
same,LEUKOCYTE COUNT,[4],12.43 x10E3/uL
same,LYMPHOCYTE,[4],78.07%
same,MEAN CORPUSCULAR HEMOGLOBIN,[4],19.67 pg
same,MEAN CORPUSCULAR HEMOGLOBIN CONCENTRATION,[4],31.37 G/DL
same,MEAN CORPUSCULAR VOLUME,[4],62.7 fL
same,MONOCYTE,[4],3.4%
same,NEUTROPHIL,[4],15.23%
same,PLATELET COUNT,[4],1492.67 x10E3/uL
same,ALANINE AMINOTRANSFERASE,[4],41.67 u/L
same,ALBUMIN,[4],3.8 G/DL
same,ALKALINE PHOSPHATASE,[4],376 u/L
same,ASPARTATE AMINOTRANSFERASE,[4],62.67 u/L
same,BLOOD UREA NITROGEN,[4],16 mg/dL
same,CHLORIDE,[4],102 MEQ/L
same,CHOLESTEROL,[4],67.33 mg/dL
same,CREATINE PHOSPHOKINASE,[4],145 u/L
same,CREATININE,[4],0.6 mg/dL
same,GLUCOSE,[4],181.33 mg/dL
same,PHOSPHORUS,[4],12.37 mg/dL
same,POTASSIUM,[4],6.73 MEQ/L
same,SODIUM,[4],149 MEQ/L
same,TOTAL BILIRUBIN,[4],0.33 mg/dL
same,TOTAL PROTEIN,[4],6.57 G/DL
same,BASOPHIL,[5],1.07%
same,EOSINOPHIL,[5],0.27%
same,ERYTHROCYTE COUNT,[5],5.61 x10E6/uL
same,HEMATOCRIT,[5],34.27%
same,HEMOGLOBIN,[5],10.67 G/DL
same,LEUKOCYTE COUNT,[5],17.3 x10E3/uL
same,LYMPHOCYTE,[5],66.33%
same,MEAN CORPUSCULAR HEMOGLOBIN,[5],19 pg
same,MEAN CORPUSCULAR HEMOGLOBIN CONCENTRATION,[5],31.13 G/DL
same,MEAN CORPUSCULAR VOLUME,[5],61.13 fL
same,MONOCYTE,[5],3.5%
same,NEUTROPHIL,[5],27.87%
same,PLATELET COUNT,[5],1221.33 x10E3/uL
same,ALANINE AMINOTRANSFERASE,[5],31 u/L
same,ALBUMIN,[5],2.83 G/DL
same,ALKALINE PHOSPHATASE,[5],157 u/L
same,ASPARTATE AMINOTRANSFERASE,[5],47.67 u/L
same,BLOOD UREA NITROGEN,[5],12.67 mg/dL
same,CHLORIDE,[5],105 MEQ/L
same,CHOLESTEROL,[5],58.67 mg/dL
same,CREATINE PHOSPHOKINASE,[5],142.33 u/L
same,CREATININE,[5],0.47 mg/dL
same,GLUCOSE,[5],168 mg/dL
same,PHOSPHORUS,[5],11.97 mg/dL
same,POTASSIUM,[5],6.27 MEQ/L
same,SODIUM,[5],148.33 MEQ/L
same,TOTAL BILIRUBIN,[5],0.2 mg/dL
same,TOTAL PROTEIN,[5],5 G/DL
same,BASOPHIL,[6],1.2%
same,EOSINOPHIL,[6],0.25%
same,ERYTHROCYTE COUNT,[6],4.38 x10E6/uL
same,HEMATOCRIT,[6],26.95%
same,HEMOGLOBIN,[6],8.35 G/DL
same,LEUKOCYTE COUNT,[6],3.5 x10E3/uL
same,LYMPHOCYTE,[6],64.7%
same,MEAN CORPUSCULAR HEMOGLOBIN,[6],19.1 pg
same,MEAN CORPUSCULAR HEMOGLOBIN CONCENTRATION,[6],31 G/DL
same,MEAN CORPUSCULAR VOLUME,[6],61.65 fL
same,MONOCYTE,[6],3.45%
same,NEUTROPHIL,[6],24.5%
same,PLATELET COUNT,[6],1541 x10E3/uL
same,ALANINE AMINOTRANSFERASE,[6],27 u/L
same,ALBUMIN,[6],2.6 G/DL
same,ALKALINE PHOSPHATASE,[6],256 u/L
same,ASPARTATE AMINOTRANSFERASE,[6],105 u/L
same,BLOOD UREA NITROGEN,[6],64 mg/dL
same,CHLORIDE,[6],103 MEQ/L
same,CHOLESTEROL,[6],43 mg/dL
same,CREATINE PHOSPHOKINASE,[6],183 u/L
same,CREATININE,[6],0.6 mg/dL
same,GLUCOSE,[6],107 mg/dL
same,PHOSPHORUS,[6],19.1 mg/dL
same,POTASSIUM,[6],9.9 MEQ/L
same,SODIUM,[6],141 MEQ/L
same,TOTAL BILIRUBIN,[6],0.3 mg/dL
same,TOTAL PROTEIN,[6],5.3 G/DL
